Assays:
HEK293T cells [1] = assay: Different DNAPK inhibitors on precise gene editing outcomes, Example 8; details: for HDR to indel ratio / Precise KI fold increase: gINS + ssDNA; for Precise KI fold increase: vs DMSO; for MMEJ indels Mean / NHEJ indels Mean / Total editing Mean: sgRNA CD34 (gINS) + ssDNA, 70 hours post-transfection;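 on all read-outs here: cells transfected with plasmids for SpCas9-EGFP, editing outcomes quantified from genomic DNA by deep targeted amplicon sequencing with bioinformatic analysis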
Protocol: Cells allowed to attach for 12 hours before transfection. Cells were transfected with DNA plasmids encoding for SpCas9-EGFP and a sgRNAs targeting CD34 (gINS) in the presence of single-stranded oligonucleotide donor (ssDNA). 70 hours post-transfection cell confluence and EGFP-based transfection efficiencies were determined with the Incucyte S3. Genomic DNA was extracted and editing outcome was analysed through deep-targeted amplicon sequencing using bioinformatic analysis.

[2] = system: induced Pluripotent Stem Cells (iPSC); assay: Double-strand break repair pathways in Cas9-inducible iPSCs, Example 5; assay type: cell-based; details: single inhibitor: AZD7648 1 μM or PolQ inhibitor 3 μM, vs DMSO, FIG. 12
Protocol: (§1) The effect of NHEJ and/or MMEJ pathway inhibition on CRISPR-Cas-induced DNA double stranded break repair pathways in iPSCs was examined. Briefly, iPSCs comprising an inducible Cas9 gene were seeded into a 96-well plate 20 hours before transfection with a plasmid encoding a guide RNA (sgRNA) targeting one of three separate target sites together with a single-stranded oligonucleotide donor (ssDNA), followed by induction of Cas9 expression. […] Sixty hours post-transfection, the percentage of double-stranded break repair by the HDR, NHEJ, and MMEJ pathways was determined as discussed in Example 1.

HEK293T cells [3] = assay: PolQ inhibitor ART558 titration on precise gene editing outcomes, Example 10; assay type: cell-based; details: DNAPK inhibitor 1 μM, PolQ inhibitor 0 μM
Protocol: (§2) HEK293T cells were seeded into 96-well plates and allowed to attach for 20 hours.

HEK293T cells [4] = assay: PolQ2 and PolQ6 on precise gene editing outcome at various target-sites, Example 9; assay type: cell-based; details: DNAPK inhibitor 1 μM, PolQ inhibitor 0 μM; for MMEJ indels Mean / NHEJ indels Mean / Total editing Mean: HEK293T, ssDNA donor; for Precise KI fold increase: vs DMSO
Protocol: as §2

HEK293T cells [5] = assay: CRISPR/Cas9 double-strand break repair pathway and knock-in analysis (RIMA, amplicon sequencing), Examples 1-3; assay type: cell-based
Protocol: (§3) The effect of inhibitors of the MMEJ and NHEJ pathways on CRISPR-Cas-induced DNA double stranded break repair pathways was examined using the process shown schematically in FIG. 2A. Briefly, HEK293T cells were seeded into a 96-well plate 20 hours before transfection with plasmids encoding SpCas9 and a guide RNA (sgRNA) targeting CD34 together with a single-stranded oligonucleotide donor (ssDNA). […] The Pol Q inhibitors used are PolQ_2, PolQ_3, PolQ_4, PolQ_5, PolQ_6 or PolQ_7. Sixty hours post-transfection, genomic DNA was harvested and sequenced using deep-targeted amplicon sequencing. Genetic variants of the sequencing data were determined using a bioinformatic workflow, and the percentages of DNA double-stranded break repair by the MMEJ, NHEJ, and HDR pathways were determined using Rational InDel Meta-Analysis (RIMA). See, e.g., Taheri-Ghafarokhi et al, Nuc. Acids Res., 2018, 46 (16): 8417-8434. The RIMA results are plotted as shown in FIG. 2B, where deletions associated with microhomologies are visualized according to the bars shown in the figure.
The effect of NHEJ and MMEJ inhibitors on the CRISPR/Cas-mediated knock-in efficiency was determined in both mutated and mapped reads.
The effect of MMEJ pathway inhibition on mutated and mapped reads was assessed.

HEK293T cells [6] = assay: Cell confluency and transfection efficiency in CRISPR/Cas-transfected cells, Example 4; assay type: cell-based; details: AZD7648 at a final concentration of 1 mM, FIG. 10
Protocol: as §3
HEK293T cells were cultured, transfected, and treated with NHEJ and MMEJ inhibitors as described in Example 1. Cell confluency and transfection efficiency was assessed in transfected cells treated with NHEJ and MMEJ inhibitors.

HEK293T cells [7] = assay: Off-target editing at HEK3 and HEK4 on- and off-target sites with DNAPK and PolQ inhibitors, Example 12; assay type: cell-based; details: DNAPK inhibitor 1 μM, PolQ inhibitor 0 μM
Protocol: as §2

Cas9-inducible iPSCs = assay: SSTR-mediated gene knock-in in Cas9-inducible iPSCs, Example 6; assay type: cell-based; details: single inhibitor, mapped reads, FIG. 13
Protocol: as §1
The effect of NHEJ and MMEJ pathway inhibition on gene knock-in efficiency mediated by the SSTR pathway in iPSCs was investigated. Briefly, Cas9-inducible iPSCs were cultured and transfected with sgRNA and ssDNA polynucleotides as described in Example 5.

[8] = HEK293T, sgRNA CD34 (gMEJ) + ssDNA
[9] = SpCas9 + sgRNA CD34 + ssDNA, AZD7648 1 μM alone or in combination with Pol Q inhibitors, vs DMSO controls, FIG. 4

**Q.** What does the source list for `Cc1cc2ncnn2cc1Nc1ncc2c(n1)n(C1CCOCC1)c(=O)n2C` [AZD7648]?
**A.** HDR to indel ratio (HEK293T cells [1]; DNAPK inhibitor 0.3125 μM): 0.3; Precise KI fold increase (HEK293T cells [1]; DNAPK inhibitor 0.3125 μM): 1.4 fold; HDR to indel ratio (HEK293T cells [1]; DNAPK inhibitor 0.625 μM): 0.5; Precise KI fold increase (HEK293T cells [1]; DNAPK inhibitor 0.625 μM): 2.0 fold; HDR to indel ratio (HEK293T cells [1]; DNAPK inhibitor 1.25 μM): 0.6; Precise KI fold increase (HEK293T cells [1]; DNAPK inhibitor 1.25 μM): 2.0 fold; HDR to indel ratio (HEK293T cells [1]; DNAPK inhibitor 5 μM): 1.1; Precise KI fold increase (HEK293T cells [1]; DNAPK inhibitor 5 μM): 2.9 fold; HDR to indel ratio (HEK293T cells [1]; DNAPK inhibitor 10 μM): 1.1; Precise KI fold increase (HEK293T cells [1]; DNAPK inhibitor 10 μM): 2.8 fold; MMEJ indels Mean (HEK293T cells [1]; DNAPK inhibitor 0.3125 μM): 15.2; NHEJ indels Mean (HEK293T cells [1]; DNAPK inhibitor 0.3125 μM): 28.6; Total editing Mean (HEK293T cells [1]; DNAPK inhibitor 0.3125 μM): 69.5; MMEJ indels Mean (HEK293T cells [1]; DNAPK inhibitor 0.625 μM): 17.4; NHEJ indels Mean (HEK293T cells [1]; DNAPK inhibitor 0.625 μM): 18.3; Total editing Mean (HEK293T cells [1]; DNAPK inhibitor 0.625 μM): 66.0; MMEJ indels Mean (HEK293T cells [1]; DNAPK inhibitor 1.25 μM): 16.5; NHEJ indels Mean (HEK293T cells [1]; DNAPK inhibitor 1.25 μM): 8.7; Total editing Mean (HEK293T cells [1]; DNAPK inhibitor 1.25 μM): 53.3; MMEJ indels Mean (HEK293T cells [1]; DNAPK inhibitor 5 μM): 18.5; NHEJ indels Mean (HEK293T cells [1]; DNAPK inhibitor 5 μM): 2.5; Total editing Mean (HEK293T cells [1]; DNAPK inhibitor 5 μM): 57.5; MMEJ indels Mean (HEK293T cells [1]; DNAPK inhibitor 10 μM): 16.9; NHEJ indels Mean (HEK293T cells [1]; DNAPK inhibitor 10 μM): 2.2; Total editing Mean (HEK293T cells [1]; DNAPK inhibitor 10 μM): 53.7; double-strand break repair by the HDR pathway [2]: marked in increase; repair by the MMEJ and NHEJ pathways [2]: decreased; MMEJ indels Mean (HEK293T cells [3]; [8]): 32.6; NHEJ indels Mean (HEK293T cells [3]; [8]): 1.3; Total editing Mean (HEK293T cells [3]; [8]): 74.4; KI to indel ratio (HEK293T cells [3]; gMEJ + ssDNA): 0.7; MMEJ indels Mean (HEK293T cells [4]; target-site gDel): 8.9; NHEJ indels Mean (HEK293T cells [4]; target-site gDel): 1.3; Total editing Mean (HEK293T cells [4]; target-site gDel): 77.3; MMEJ indels Mean (HEK293T cells [4]; target-site gMej): 27.9; NHEJ indels Mean (HEK293T cells [4]; target-site gMej): 2.9; Total editing Mean (HEK293T cells [4]; target-site gMej): 83.1; MMEJ indels Mean (HEK293T cells [4]; target-site glns): 13.3; NHEJ indels Mean (HEK293T cells [4]; target-site glns): 1.3; Total editing Mean (HEK293T cells [4]; target-site glns): 83.0; KI to indel ratio (HEK293T cells [4]; target-site gDel): 4.0; Precise KI fold increase (HEK293T cells [4]; target-site gDel): 2.5 fold; KI to indel ratio (HEK293T cells [4]; target-site gMej): 1.0; Precise KI fold increase (HEK293T cells [4]; target-site gMej): 2.2 fold; KI to indel ratio (HEK293T cells [4]; target-site glns): 3.3; Precise KI fold increase (HEK293T cells [4]; target-site glns): 3.3 fold; CRISPR/Cas-mediated editing efficiency (HEK293T cells [5]; AZD7648 1 μM alone and in combination with Pol Q inhibitors, FIG. 5): did not affect; double-strand break repair by the HDR pathway (HEK293T cells [5]; [9]): marked in increase; repair by the MMEJ and NHEJ pathways (HEK293T cells [5]; [9]): decreased; cell confluency (HEK293T cells [6]): no significant effect; OT1 off-target editing Mean (HEK293T cells [7]; HEK3 nodonor): 41.9; OT2 off-target editing Mean (HEK293T cells [7]; HEK3 nodonor): 32.5; OT3 off-target editing Mean (HEK293T cells [7]; HEK3 nodonor): 16.3; OT4 off-target editing Mean (HEK293T cells [7]; HEK3 nodonor): 0.3; on-target editing Mean (HEK293T cells [7]; HEK3 nodonor): 73.8; OT1 off-target editing Mean (HEK293T cells [7]; HEK3 ssDNA): 17.7; OT2 off-target editing Mean (HEK293T cells [7]; HEK3 ssDNA): 12.7; OT3 off-target editing Mean (HEK293T cells [7]; HEK3 ssDNA): 7.6; OT4 off-target editing Mean (HEK293T cells [7]; HEK3 ssDNA): 0.1; on-target editing Mean (HEK293T cells [7]; HEK3 ssDNA): 61.5; OT1 off-target editing Mean (HEK293T cells [7]; HEK4 nodonor): 12.7; OT2 off-target editing Mean (HEK293T cells [7]; HEK4 nodonor): 7.3; OT3 off-target editing Mean (HEK293T cells [7]; HEK4 nodonor): 36.3; on-target editing Mean (HEK293T cells [7]; HEK4 nodonor): 9.8; OT1 off-target editing Mean (HEK293T cells [7]; HEK4 ssDNA): 5.4; OT2 off-target editing Mean (HEK293T cells [7]; HEK4 ssDNA): 3.3; OT3 off-target editing Mean (HEK293T cells [7]; HEK4 ssDNA): 18.2; on-target editing Mean (HEK293T cells [7]; HEK4 ssDNA): 15.6; SSTR-mediated gene knock-in at all three target sites (Cas9-inducible iPSCs): increased

Reference: patent US20240409963A1, “Use of Inhibitors to Increase Efficiency of Crispr/CAS Insertions” (AstraZeneca AB, priority 2021, published 2024)
